Test results as given in US12390435B2, “Electrophiles and electrophile pro-drugs as RAD51 inhibitors” (University of Pittsburgh—Of the Commonwealth System of …, priority 2018, dated 2025).

Legend:
Type in all cases: cell-based
[1] = tested on: NF-κB transcriptional activity; assay: NF-κB luciferase reporter; settings: MDA-MB-231 and MDA-MB-468 cells, 5 μM 2 hr then TNFα 20 ng/mL 4 hr
Method: Luciferase-chemiluminescence-based analysis of NF-κB transcriptional activity was performed. MDA-MB-231 and MDA-MB-468 cells (˜70% confluence) in 12-well plates were transiently transfected with a NF-κB-luciferase reporter plasmid (Stratagene, La Jolla, CA) with Lipofectamine 3000. […] Each transfection was performed in triplicate. Luciferase activity was measured using the Dual-luciferase assay kit (Promega). Relative light units (RLU) were measured using a 96-well plate luminometer, according to the manufacturer's instructions (Victor II, PerkinElmer Life Sciences). Protein concentration was determined using the BCA Assay (Thermo Fisher Scientific). Data represents the ratio of treated samples to controls in the context of mean RLU/protein content, +/−SD. Three individual experiments were done, and statistical significance was determined by Kruskal-Wallis test followed by Dunn's post-test with Bonferroni corrections for multiple comparisons.

[2] = tested on: MDA-MB-231 and MDA-MB-468 cells; assay: GSH and GSSG LC-MS/MS; settings: 5 μM, 0 to 12 hr
Method: (§1) MCF-10A, MDA-MB-231, and MDA-MB-468 cells were seeded in 24-well plates at a density of 3×10^5 cells/well. […] At each time point, cell media was aspirated and washed 2 times with sterile PBS. Cells were then incubated with PBS containing 25 mM N-ethylmaleimide (NEM) for 15 min at 37° C. Derivatizing solution (50 μL of 15% MeOH, 40 mM HEPES, 50 mM NaCl, 1 mM EDTA, 2 μM [^13C2^15N]-GSH, 2 μM [^13C4^15N2]-GSSG, and 25 mM NEM) was added to each well and incubated for 15 min at room temperature. Next, 50 μL, of 10% (w/v) sulfosalicylic acid solution was immediately added to each well to stabilize GSH and GSSG. Supernatant was collected by centrifugation at 15,000 RPM for 10 min at 4° C. Samples were diluted 1:5 in 5% sulfosalicylic acid and 20 μL, was injected for HPLC-MS/MS analysis. Cell numbers at time 0 hr were quantitated by Hoechst 33258 DNA stain assay and used to normalized GSH or GSSG levels expressed as nmol/cells (×10^6).
(§2) Samples were applied to the column at 30% B and eluted with a linear increase in solvent B (30-100% in 9.7 min). The column was washed at 100% B for 3 min before returning to initial conditions for equilibration (2 min). […] Sample [GSH] and [GSSG] were determined from analyte:I.S. area ratios, and intracellular GSH and GSSG were normalized to cell number (10^6), with results expressed as nmol GSH or GSSG per 10^6 cells.

MCF-10A cells = assay: GSH and GSSG LC-MS/MS; settings: 5 μM, 0 to 12 hr
Method: as §1, §2

breast cancer cell = assay: Clonogenic assay after 2 Gy IR; settings: increasing concentrations
[3] = tested on: single strand annealing (SSA); assay: GFP reporter assay for single strand annealing; settings: 5 μM, 48 h
Method: FIG. 13B is GFP-reporter assays examining effects of OA-NO2 on different DNA DSB repair pathways described in FIG. 14A. U2OS cells containing the GFP-reporter construct DR-GFP were transfected with an I-SceI plasmid and treated with vehicle (gray), 5 μM OA (green) or 5 μM OA-NO2 (red). The number of GFP positive cells were detected by flow cytometry at 48 h. GFP-reporter measuring NHEJ: n=3, SSA: n=3; HDR: n=3; Alt-EJ: n=1.
Measurements of NHEJ, HR, Alt-EJ and SSA assays were performed as previously described. HR activity was measured by counting GFP-positive cells by flow cytometry at the MWRI flow cytometry core using a BD LSRII (BD Biosciences). RAD51 overexpressing cells were generated by stable transfection of pLVX RAD51 IRES Neo and selection with geneticin (Invitrogen).

SMILES: CCCCCCCCC(=CCCCCCCCC(=O)O)[N+](=O)[O-] [NO2-OA, 10-nitro-octadec-9-enoic acid]
- NF-κB-dependent transcription of luciferase [1]: significantly inhibited
- GSH:GSSG ratio after treatment [2]: rapidly decreased
- GSH:GSSG ratio after treatment (MCF-10A cells): maintained the GSH:GSSG ratio over the first 6 hr
- cell death in clonogenic assay (breast cancer cell): enhanced breast cancer cell death
- effect on single strand annealing [3]: also inhibits single strand annealing
